The source of these data is ChEMBL document CHEMBL1153595, “Structure-based design and parallel synthesis of N-benzyl isatin oximes as JNK3 MAP kinase inhibitors” (Bioorg Med Chem Lett, 2009).

Test [1] concerns the target Mitogen-activated protein kinase 10 (Homo sapiens, UniProt P53779). The test can be described thus: Inhibition of JNK3 by spectrophotometric coupled enzyme assay.
Test [2] deals with Mitogen-activated protein kinase 14 (Homo sapiens, UniProt Q16539). Briefly: Inhibition of p38alpha by spectrophotometric coupled enzyme assay.
Test [3] addresses Mitogen-activated protein kinase 1 (Homo sapiens, UniProt P28482). Briefly: Inhibition of ERK2 by spectrophotometric coupled enzyme assay.
Test [4] has as its target RAC-gamma serine/threonine-protein kinase (Homo sapiens, UniProt Q9Y243). The test can be described thus: Inhibition of AKT3.
Test [5] addresses T1, Receptor-type tyrosine-protein kinase FLT3 (Homo sapiens, UniProt P36888).
T1 sequence (P36888 whole entry): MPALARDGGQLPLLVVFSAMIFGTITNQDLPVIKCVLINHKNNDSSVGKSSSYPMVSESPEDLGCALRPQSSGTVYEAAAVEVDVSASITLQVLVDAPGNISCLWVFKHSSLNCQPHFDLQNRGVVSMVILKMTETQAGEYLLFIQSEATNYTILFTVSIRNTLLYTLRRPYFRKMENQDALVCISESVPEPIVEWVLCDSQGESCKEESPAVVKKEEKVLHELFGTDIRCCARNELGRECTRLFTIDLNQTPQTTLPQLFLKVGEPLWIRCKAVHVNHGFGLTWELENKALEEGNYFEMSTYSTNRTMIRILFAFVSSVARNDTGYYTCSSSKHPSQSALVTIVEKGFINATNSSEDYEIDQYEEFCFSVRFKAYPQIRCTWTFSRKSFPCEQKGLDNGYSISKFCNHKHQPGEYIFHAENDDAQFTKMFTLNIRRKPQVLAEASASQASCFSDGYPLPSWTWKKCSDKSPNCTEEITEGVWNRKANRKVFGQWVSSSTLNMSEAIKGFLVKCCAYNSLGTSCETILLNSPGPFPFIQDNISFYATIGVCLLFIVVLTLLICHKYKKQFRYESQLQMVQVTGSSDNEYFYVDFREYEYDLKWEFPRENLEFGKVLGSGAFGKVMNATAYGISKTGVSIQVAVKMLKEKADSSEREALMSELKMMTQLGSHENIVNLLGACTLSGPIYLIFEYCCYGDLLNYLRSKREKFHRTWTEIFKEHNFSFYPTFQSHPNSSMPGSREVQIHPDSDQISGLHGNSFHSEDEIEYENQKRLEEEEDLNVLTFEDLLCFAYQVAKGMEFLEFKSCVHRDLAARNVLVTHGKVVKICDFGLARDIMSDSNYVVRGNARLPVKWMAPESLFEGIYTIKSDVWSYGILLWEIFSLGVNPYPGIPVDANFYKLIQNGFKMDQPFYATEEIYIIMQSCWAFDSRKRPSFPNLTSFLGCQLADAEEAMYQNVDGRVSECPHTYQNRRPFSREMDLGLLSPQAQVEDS
The test can be described thus: Inhibition of FLT3.

The target of test [6] is Mitogen-activated protein kinase 8 (Homo sapiens, UniProt P45983). Briefly: Inhibition of JNK1.
The target of test [7] is T2, Tyrosine-protein kinase JAK3 (Homo sapiens, UniProt P52333).
T2 sequence (P52333 whole entry): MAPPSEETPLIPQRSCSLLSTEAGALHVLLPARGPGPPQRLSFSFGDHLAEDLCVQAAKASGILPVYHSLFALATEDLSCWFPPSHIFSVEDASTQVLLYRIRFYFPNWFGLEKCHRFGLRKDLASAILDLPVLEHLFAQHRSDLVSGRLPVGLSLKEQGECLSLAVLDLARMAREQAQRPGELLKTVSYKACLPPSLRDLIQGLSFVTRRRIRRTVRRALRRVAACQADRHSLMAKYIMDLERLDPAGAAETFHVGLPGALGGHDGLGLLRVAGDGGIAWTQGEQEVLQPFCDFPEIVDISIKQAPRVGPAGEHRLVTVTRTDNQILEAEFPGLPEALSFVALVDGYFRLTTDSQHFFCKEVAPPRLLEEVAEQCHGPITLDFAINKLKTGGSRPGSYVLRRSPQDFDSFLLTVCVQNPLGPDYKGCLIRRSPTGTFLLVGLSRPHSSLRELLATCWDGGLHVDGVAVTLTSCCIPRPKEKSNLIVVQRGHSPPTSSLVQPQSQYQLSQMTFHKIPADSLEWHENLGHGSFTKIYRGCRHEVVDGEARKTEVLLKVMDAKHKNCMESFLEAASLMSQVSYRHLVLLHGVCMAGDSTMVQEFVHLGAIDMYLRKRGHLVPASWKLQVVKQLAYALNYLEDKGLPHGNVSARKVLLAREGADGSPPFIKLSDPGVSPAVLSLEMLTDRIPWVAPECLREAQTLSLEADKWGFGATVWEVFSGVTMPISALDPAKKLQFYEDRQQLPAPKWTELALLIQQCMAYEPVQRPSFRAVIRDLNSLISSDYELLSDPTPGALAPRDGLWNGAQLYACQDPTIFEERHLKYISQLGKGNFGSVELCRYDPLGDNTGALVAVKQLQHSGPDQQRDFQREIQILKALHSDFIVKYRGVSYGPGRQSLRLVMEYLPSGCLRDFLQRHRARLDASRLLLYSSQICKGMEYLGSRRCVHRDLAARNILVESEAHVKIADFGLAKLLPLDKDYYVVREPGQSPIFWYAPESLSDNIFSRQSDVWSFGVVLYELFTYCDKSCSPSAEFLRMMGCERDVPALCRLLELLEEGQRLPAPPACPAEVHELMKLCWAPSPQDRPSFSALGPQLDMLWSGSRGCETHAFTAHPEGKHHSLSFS
Briefly: Inhibition of JAK3.

Test [8] deals with Tyrosine-protein kinase Lck (Homo sapiens, UniProt P06239). Briefly: Inhibition of LCK.
In test [9] the target is Rho-associated protein kinase 1 (Homo sapiens, UniProt Q13464). The test can be described thus: Inhibition of ROCK1.
In a further test the target is Angiopoietin-1 receptor (Homo sapiens, UniProt Q02763). The test can be described thus: Inhibition of Tie2.
Test [10] concerns the target Glycogen synthase kinase-3 beta (Homo sapiens, UniProt P49841). The test can be described thus: Inhibition of GSK3-beta.
Test [11] concerns the target Cyclin-dependent kinase 2 (Homo sapiens, UniProt P24941). Briefly: Inhibition of CDK2.
For test [12], the target named is Proto-oncogene tyrosine-protein kinase Src (Homo sapiens, UniProt P12931). Briefly: Inhibition of Src.
The target of test [13] is Mitogen-activated protein kinase 9 (Homo sapiens, UniProt P45984). The test can be described thus: Inhibition of JNK2.
Sequence of Mitogen-activated protein kinase 9 (P45984 whole entry): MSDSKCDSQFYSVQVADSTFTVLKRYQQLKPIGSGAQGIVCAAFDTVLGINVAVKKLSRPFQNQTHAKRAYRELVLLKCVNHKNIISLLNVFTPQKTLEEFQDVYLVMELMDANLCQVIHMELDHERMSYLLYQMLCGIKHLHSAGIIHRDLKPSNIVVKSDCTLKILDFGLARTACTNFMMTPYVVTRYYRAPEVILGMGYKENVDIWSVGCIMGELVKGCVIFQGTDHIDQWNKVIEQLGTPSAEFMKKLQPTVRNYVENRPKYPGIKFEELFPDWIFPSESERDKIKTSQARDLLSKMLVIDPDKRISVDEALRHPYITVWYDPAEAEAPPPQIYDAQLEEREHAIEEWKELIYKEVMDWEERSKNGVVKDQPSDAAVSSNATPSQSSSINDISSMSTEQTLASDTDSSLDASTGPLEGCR

Sequence of Mitogen-activated protein kinase 14 (Q16539 whole entry): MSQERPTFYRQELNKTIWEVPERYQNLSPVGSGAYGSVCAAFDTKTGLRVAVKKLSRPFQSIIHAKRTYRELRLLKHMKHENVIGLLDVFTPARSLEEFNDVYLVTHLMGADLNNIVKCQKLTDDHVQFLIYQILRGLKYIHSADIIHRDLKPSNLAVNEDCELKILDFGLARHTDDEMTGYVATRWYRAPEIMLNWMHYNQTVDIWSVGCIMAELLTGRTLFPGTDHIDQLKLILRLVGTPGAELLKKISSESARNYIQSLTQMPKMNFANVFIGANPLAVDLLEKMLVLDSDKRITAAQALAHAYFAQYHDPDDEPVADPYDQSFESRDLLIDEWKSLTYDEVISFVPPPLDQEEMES
Sequence of Mitogen-activated protein kinase 10 (P53779 whole entry): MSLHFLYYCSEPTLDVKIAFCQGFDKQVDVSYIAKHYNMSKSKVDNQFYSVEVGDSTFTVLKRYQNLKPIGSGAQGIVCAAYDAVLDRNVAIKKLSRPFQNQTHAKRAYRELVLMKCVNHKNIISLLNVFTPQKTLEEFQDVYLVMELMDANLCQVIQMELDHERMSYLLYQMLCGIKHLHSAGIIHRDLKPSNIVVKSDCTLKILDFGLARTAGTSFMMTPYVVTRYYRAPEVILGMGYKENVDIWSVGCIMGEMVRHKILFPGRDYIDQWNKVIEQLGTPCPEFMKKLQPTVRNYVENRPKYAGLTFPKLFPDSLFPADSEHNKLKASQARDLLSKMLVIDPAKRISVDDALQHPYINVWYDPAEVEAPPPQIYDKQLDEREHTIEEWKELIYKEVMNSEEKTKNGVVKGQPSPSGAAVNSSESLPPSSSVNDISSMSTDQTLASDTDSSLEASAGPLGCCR
Sequence of Mitogen-activated protein kinase 1 (P28482 whole entry): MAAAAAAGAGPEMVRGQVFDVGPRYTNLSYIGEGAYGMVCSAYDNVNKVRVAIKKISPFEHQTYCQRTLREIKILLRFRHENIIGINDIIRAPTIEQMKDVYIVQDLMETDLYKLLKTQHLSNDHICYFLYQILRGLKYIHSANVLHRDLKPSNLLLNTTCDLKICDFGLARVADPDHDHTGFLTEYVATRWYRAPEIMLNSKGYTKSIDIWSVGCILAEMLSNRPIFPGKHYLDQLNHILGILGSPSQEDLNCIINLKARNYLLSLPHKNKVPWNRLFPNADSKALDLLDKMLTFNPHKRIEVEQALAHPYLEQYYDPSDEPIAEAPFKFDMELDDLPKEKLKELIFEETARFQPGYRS
Sequence of RAC-gamma serine/threonine-protein kinase (Q9Y243 whole entry): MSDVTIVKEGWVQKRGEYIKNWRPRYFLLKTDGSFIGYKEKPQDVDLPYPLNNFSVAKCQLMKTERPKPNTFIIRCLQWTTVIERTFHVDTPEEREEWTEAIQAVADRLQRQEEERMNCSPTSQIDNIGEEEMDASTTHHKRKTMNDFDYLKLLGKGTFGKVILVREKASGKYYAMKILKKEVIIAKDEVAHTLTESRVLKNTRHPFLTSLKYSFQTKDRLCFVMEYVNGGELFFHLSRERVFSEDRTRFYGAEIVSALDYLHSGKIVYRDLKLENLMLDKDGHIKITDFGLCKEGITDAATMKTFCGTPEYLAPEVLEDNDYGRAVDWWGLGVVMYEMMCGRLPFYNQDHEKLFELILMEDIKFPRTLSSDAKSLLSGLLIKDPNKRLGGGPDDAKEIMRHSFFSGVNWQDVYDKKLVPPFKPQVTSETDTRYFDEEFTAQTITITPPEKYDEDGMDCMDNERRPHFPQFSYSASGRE
Sequence of Mitogen-activated protein kinase 8 (P45983 whole entry): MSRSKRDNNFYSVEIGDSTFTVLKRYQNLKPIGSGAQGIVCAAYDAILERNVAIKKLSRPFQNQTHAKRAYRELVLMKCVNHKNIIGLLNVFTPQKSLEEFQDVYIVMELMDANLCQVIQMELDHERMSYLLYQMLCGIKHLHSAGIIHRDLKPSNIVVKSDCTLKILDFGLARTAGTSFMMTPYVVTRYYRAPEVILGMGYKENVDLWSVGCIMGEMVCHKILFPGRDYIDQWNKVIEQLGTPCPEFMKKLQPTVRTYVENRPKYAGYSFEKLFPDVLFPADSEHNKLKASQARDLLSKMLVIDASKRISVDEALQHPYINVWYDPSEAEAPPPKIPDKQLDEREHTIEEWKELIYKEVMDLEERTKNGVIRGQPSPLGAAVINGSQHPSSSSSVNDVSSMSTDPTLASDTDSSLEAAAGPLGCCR
Sequence of Tyrosine-protein kinase Lck (P06239 whole entry): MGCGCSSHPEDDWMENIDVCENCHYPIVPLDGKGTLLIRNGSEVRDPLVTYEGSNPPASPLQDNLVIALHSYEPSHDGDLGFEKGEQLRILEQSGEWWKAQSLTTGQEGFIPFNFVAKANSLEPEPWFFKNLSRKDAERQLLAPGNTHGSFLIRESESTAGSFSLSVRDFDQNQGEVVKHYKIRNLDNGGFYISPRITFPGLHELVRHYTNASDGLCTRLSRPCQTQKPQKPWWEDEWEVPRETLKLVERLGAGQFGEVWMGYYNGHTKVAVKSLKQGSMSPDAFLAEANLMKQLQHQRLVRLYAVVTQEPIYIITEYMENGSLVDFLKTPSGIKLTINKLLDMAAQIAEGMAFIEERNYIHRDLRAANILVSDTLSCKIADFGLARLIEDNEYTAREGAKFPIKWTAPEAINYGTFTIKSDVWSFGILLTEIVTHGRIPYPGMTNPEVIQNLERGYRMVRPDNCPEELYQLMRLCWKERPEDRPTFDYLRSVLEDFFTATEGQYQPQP
Sequence of Glycogen synthase kinase-3 beta (P49841 whole entry): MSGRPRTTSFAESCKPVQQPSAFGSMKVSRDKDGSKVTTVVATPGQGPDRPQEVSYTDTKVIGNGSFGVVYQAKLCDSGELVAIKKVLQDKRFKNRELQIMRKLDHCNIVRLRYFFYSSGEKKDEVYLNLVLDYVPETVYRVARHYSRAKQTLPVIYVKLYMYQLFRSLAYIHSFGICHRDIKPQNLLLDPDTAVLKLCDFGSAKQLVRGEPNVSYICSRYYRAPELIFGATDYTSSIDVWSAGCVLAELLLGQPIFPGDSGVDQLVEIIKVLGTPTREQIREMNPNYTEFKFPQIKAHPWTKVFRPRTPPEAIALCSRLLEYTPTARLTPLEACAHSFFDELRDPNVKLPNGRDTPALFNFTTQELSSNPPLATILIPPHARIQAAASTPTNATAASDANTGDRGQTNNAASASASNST
Sequence of Rho-associated protein kinase 1 (Q13464 whole entry): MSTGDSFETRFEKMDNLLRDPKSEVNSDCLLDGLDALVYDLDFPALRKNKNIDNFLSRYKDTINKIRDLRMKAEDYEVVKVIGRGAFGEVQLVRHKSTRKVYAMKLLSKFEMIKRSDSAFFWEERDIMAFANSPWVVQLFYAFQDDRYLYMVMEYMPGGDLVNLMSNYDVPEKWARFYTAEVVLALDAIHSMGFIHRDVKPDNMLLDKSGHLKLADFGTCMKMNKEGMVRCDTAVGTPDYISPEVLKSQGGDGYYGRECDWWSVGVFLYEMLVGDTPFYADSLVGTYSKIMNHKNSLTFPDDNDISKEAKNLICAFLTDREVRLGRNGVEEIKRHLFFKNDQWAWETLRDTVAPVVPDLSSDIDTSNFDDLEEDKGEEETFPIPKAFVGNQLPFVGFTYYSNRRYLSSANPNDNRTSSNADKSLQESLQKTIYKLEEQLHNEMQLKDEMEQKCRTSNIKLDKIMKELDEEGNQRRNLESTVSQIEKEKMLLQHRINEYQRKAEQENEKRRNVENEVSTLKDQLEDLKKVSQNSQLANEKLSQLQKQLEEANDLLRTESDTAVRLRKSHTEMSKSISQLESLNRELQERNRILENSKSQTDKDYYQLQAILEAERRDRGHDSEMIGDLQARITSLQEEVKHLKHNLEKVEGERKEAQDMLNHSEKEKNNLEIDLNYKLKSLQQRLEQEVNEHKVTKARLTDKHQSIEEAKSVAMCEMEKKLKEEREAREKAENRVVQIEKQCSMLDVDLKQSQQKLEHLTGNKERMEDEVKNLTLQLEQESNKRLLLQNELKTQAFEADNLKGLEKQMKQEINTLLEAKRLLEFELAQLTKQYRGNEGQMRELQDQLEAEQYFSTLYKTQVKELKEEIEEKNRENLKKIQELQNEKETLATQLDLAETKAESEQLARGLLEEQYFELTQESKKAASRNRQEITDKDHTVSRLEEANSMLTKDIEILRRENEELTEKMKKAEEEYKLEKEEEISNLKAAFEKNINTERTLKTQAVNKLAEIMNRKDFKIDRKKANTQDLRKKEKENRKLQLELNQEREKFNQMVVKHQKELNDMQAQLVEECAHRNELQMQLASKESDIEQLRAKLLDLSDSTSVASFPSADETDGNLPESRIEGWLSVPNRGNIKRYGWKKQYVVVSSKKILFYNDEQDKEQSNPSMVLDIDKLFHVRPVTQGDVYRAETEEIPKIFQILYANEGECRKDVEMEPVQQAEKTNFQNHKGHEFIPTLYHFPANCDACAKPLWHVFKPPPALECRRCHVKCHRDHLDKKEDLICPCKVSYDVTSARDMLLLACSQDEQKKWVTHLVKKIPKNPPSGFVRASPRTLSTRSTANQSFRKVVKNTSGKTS

Consider `O=C1/C(=N\O)c2cc(Br)ccc2N1Cc1ccccc1`, for which the affinity in test [1] corresponds to a Ki of 2.5 µM. `O=C1/C(=N\O)c2c(/C=C/c3ccccc3)cccc2N1Cc1cc(F)cc2c1OCOC2`: in test [2], the Ki is 0.23 µM. For `Nc1ccc2c(c1)N(Cc1cc(F)cc3c1OCOC3)C(=O)/C2=N\O`, the Ki in [1] was determined as 0.4 µM. Regarding `O=C1/C(=N\O)c2cc(F)ccc2N1Cc1ccccc1`, in test [1], the inhibition constant Ki is over 10 µM.

In test [1], `O=Nc1c(O)n(Cc2ccccc2)c2ccccc12` came in with a Ki of over 10 µM. As to `O=C1/C(=N\O)c2c(CCc3ccccc3)cccc2N1Cc1cc(F)cc2c1OCOC2`, the values for the Ki in test [2], in test [1] and in test [3] were 0.03 µM, over 15 µM and over 15 µM, respectively. Regarding `O=C1/C(=N\O)c2ccc(C(F)(F)F)cc2N1Cc1cc(F)cc2c1OCOC2`, the affinity in test [1], expressed as Ki, was 0.33 µM. Regarding `O=C1/C(=N\O)c2ccc(Br)cc2N1Cc1cc(F)cc2c1OCOC2`, the Ki in test [1] came to 0.1 µM.

In turn, `O=Nc1c(O)n(Cc2cccc(C(F)(F)F)c2)c2ccccc12` returned a Ki in [1] of 5.2 µM. On the same count and under the same terms, the same measure for `COc1ccc2c(c1)N(Cc1cc(F)cc3c1OCOC3)C(=O)/C2=N\O`: 0.24 µM.

In turn, `CCNC(=O)c1ccc2c(c1)N(Cc1cc(F)cc3c1OCOC3)C(=O)/C2=N\O` registered a Ki in test [1] of 1 µM. The same measure, in the same setting: the same measure for `O=C1/C(=N\O)c2cc(OC(F)(F)F)ccc2N1Cc1cc(F)cc2c1OCOC2`: 1.7 µM; for `O=Nc1c(O)n(Cc2cccc(Cl)c2)c2ccccc12`: 5 µM.

`Cc1ccc(Cn2c(O)c(N=O)c3ccccc32)cc1`: in test [1], the inhibition constant Ki amounted to 9.9 µM. Still for that read-out and setting: next, `O=C1/C(=N\O)c2ccc(-c3ccccc3)cc2N1Cc1cc(F)cc2c1OCOC2`: 0.2 µM. Still for that read-out and setting: the same measure for `N#Cc1cccc2c1/C(=N/O)C(=O)N2Cc1cc(F)cc2c1OCOC2`: 2 µM. With `O=C1/C(=N\O)c2c(-c3cccc(F)c3)cccc2N1Cc1cc(F)cc2c1OCOC2`, the figures for the Ki in [2], in [1] and in [3] were 7.4 µM, 5.8 µM and 23 µM, respectively. With `Cc1ccc2c(c1)/C(=N/O)C(=O)N2c1ccccc1`, the Ki in test [1] was over 30 µM.

For `COC(=O)c1cccc2c1/C(=N/O)C(=O)N2Cc1cc(F)cc2c1OCOC2`, the Ki in test [1] was 30 µM; in test [3] it was over 15 µM. `O=C(O)c1ccc2c(c1)N(Cc1cc(F)cc3c1OCOC3)C(=O)/C2=N\O` yielded a Ki in test [1] of 0.3 µM. `O=C1/C(=N\O)c2ccccc2N1Cc1cc(F)cc2c1OCOC2` registered a Ki in [1] of 0.51 µM. Still for that read-out and setting: next, `O=C1/C(=N\O)c2cc(Cl)ccc2N1Cc1cc(F)cc2c1OCOC2`: 0.74 µM.

For the compound `O=C1/C(=N\O)c2ccccc2N1Cc1cccc(F)c1`, the inhibition constant Ki in [1] was found to be 8.1 µM.

In test [1], `COc1ccc(CN2C(=O)/C(=N\O)c3cc(F)ccc32)cc1` yielded a Ki of 1.6 µM. The same measure, in the same setting: the same measure for `O=C1/C(=N\O)c2ccccc2N1Cc1ccc([N+](=O)[O-])cc1`: 7 µM; for `Cc1ccc2c(c1)/C(=N/O)C(=O)N2Cc1cccc(C(F)(F)F)c1`: 2.7 µM. Turning to `O=C1/C(=N\O)c2c(-c3ccc(F)cc3)cccc2N1Cc1cc(F)cc2c1OCOC2`, the Ki is 3.4 µM in test [2], 13 µM in test [1] and over 15 µM in [3].

As for `CS(=O)(=O)Nc1ccc2c(c1)N(Cc1cc(F)cc3c1OCOC3)C(=O)/C2=N\O`, the inhibition constant Ki in [1] was determined as 0.46 µM. On to `Cc1cccc2c1/C(=N/O)C(=O)N2Cc1cc(F)cc2c1OCOC2`, for which the figures for the inhibitory constant (Ki) in [1] and in [3] were 0.7 µM and over 15 µM, respectively. In turn, `COc1cc(CN2C(=O)/C(=N\O)c3cc(F)ccc32)cc(OC)c1` showed an inhibition constant (Ki) in test [1] of 0.79 µM. On the same count and under the same terms, the same measure for `O=Nc1c(O)n(Cc2ccc(Cl)cc2)c2ccccc12`: 6.7 µM. Same read-out and setting: next, `O=C1/C(=N\O)c2ccccc2N1Cc1ccccc1F`: 8.5 µM. For `O=C1/C(=N\O)c2c(-c3ccccc3)cccc2N1Cc1cc(F)cc2c1OCOC2`, the inhibitory constant (Ki) in test [2] worked out at 9.5 µM; in [3] it was 25 µM. Compound `O=C1/C(=N\O)c2ccccc2N1Cc1cccc([N+](=O)[O-])c1` gave a Ki in [1] of 0.94 µM.

In [1], `O=C1/C(=N\O)c2ccccc2N1Cc1ccccc1[N+](=O)[O-]` returned an inhibitory constant (Ki) of over 10 µM. For `O=C1/C(=N\O)c2c(Br)cccc2N1Cc1cc(F)cc2c1OCOC2`, the Ki in [2] is over 10 µM; in [1], 0.185 µM; in [3], over 15 µM. In the case of `O=C1/C(=N\O)c2ccc([N+](=O)[O-])cc2N1Cc1cc(F)cc2c1OCOC2`, affinity in test [1] was put at a Ki of 0.64 µM. Same read-out and setting: next, `Cc1cccc(CN2C(=O)/C(=N\O)c3ccccc32)c1`: 6.8 µM; `Cc1ccc2c(c1)/C(=N/O)C(=O)N2Cc1ccccc1`: over 10 µM.

Take `CCc1cccc2c1/C(=N/O)C(=O)N2Cc1cc(F)cc2c1OCOC2`: the values for the inhibition constant (Ki) in [1] and in [3] were 1.4 µM and over 15 µM, respectively. `COC(=O)c1ccc2c(c1)N(Cc1cc(F)cc3c1OCOC3)C(=O)/C2=N\O` registered an inhibitory constant (Ki) in test [1] of 0.16 µM.

In the case of `Cc1ccc2c(c1)N(Cc1cc(F)cc3c1OCOC3)C(=O)/C2=N\O`, the Ki in test [2] is over 20 µM; in [1] it was 0.09 µM; in test [3], over 50 µM; in test [4] it was over 30 µM; in test [5] it was 4 µM; in test [6], 0.45 µM. Moreover, the inhibition constant (Ki) in test [7] was over 30 µM; in [8] it was over 30 µM; in [9], over 30 µM; at Angiopoietin-1 receptor, over 10 µM; in test [10], over 30 µM; in test [11], over 30 µM. For the same compound, the Ki in test [12] was over 30 µM; in [13] it was 0.07 µM.

On to `Cc1cccc(CN2C(=O)/C(=N\O)c3cc(C)ccc32)c1`, for which the inhibition constant Ki in [1] is over 10 µM. `CCC(=O)Nc1ccc2c(c1)N(Cc1cc(F)cc3c1OCOC3)C(=O)/C2=N\O` registered an inhibition constant (Ki) in test [1] of 0.61 µM.

Regarding `C=Cc1cccc2c1/C(=N/O)C(=O)N2Cc1cc(F)cc2c1OCOC2`, the figures for the Ki in test [2], in [1] and in test [3] were 8 µM, 0.14 µM and over 15 µM, respectively. The compound `O=C1/C(=N\O)c2cc(Cl)ccc2N1Cc1ccccc1` yielded a Ki in test [1] of 12 µM. Same read-out and setting: the same measure for `O=C1/C(=N\O)c2ccccc2N1Cc1ccc(F)cc1`: 8.3 µM; for `COc1cc(CN2C(=O)/C(=N\O)c3ccccc32)cc(OC)c1`: 0.99 µM.

A word on the Ki: it is a measure of affinity in units of concentration, obtained from inhibition or displacement. Read a low Ki as higher affinity.
